Measurements from patent US20150105252A1, “SUBSTITUTED PYRAZOLES AS HERBICIDES” (E I DU PONT DE NEMOURS AND COMPANY, priority 2013, published 2015).

How the values were obtained:
Surinam grass = assay: Test E preemergence; type: in vivo, Brachiaria decumbens; details: 21 days, scale 0 to 100
Excerpt: (§1) Seeds of plant species selected from bermudagrass (Cynodon dactylon), Surinam grass (Brachiaria decumbens), crabgrass, large (large crabgrass, Digitaria sanguinalis), crabgrass, naked (naked crabgrass, Digitaria nuda), foxtail, green (green foxtail, Setaria viridis), johnsongrass (Sorghum halepense), kochia (Kochia scoparia), morningglory (pitted morningglory, Ipomoea lacunosa), nutsedge, purple (purple nutsedge, Cyperus rotundus), ragweed (common ragweed, Ambrosia elation), mustard, black (black mustard, Brassica nigra), guineagrass (Panicum maximum), dallisgrass (Paspalum dilatatum), barnyardgrass (Echinochloa crus-galli), sandbur (southern sandbur, Cenchrus echinatus), sowthistle (common sowthistle, Sonchus oleraceous), ryegrass, Italian (Italian ryegrass, Lolium multiflorum), signalgrass (broadleaf signalgrass, Brachiaria platyphylla), dayflower, VA (Virginia (VA) dayflower, Commelina virginica), bluegrass (annual bluegrass, Poa annua), quackgrass (Elytrigia repens), mallow (common mallow, Malva sylvestris), buckwheat, wild (wild buckwheat, Polygonum convolvulus), leafy spurge (Euphorbia esula), common chickweed (Stellaria media), wild poinsettia (Euphorbia heterophylla), pigweed, palmer (palmer pigweed, Amaranthus palmeri), and pigweed (redroot pigweed, Amaranthus retroflexus) were planted into a blend of loam soil and sand and treated preemergence with test chemicals formulated in a non-phytotoxic solvent mixture which included a surfactant.
(§2) Treated plants and controls were maintained in a greenhouse for 21 days, after which time all species were compared to controls and visually evaluated. Plant response ratings, summarized in Table E, are based on a scale of 0 to 100 where 0 is no effect and 100 is complete control. A dash (-) response means no test result.

ryegrass, Italian = assay: Test E preemergence; type: in vivo, Lolium multiflorum; details: 21 days, scale 0 to 100
Excerpt: as §1, §2

quackgrass = assay: Test E preemergence; type: in vivo, Elytrigia repens; details: 21 days, scale 0 to 100
Excerpt: as §1, §2

buckwheat, wild = assay: Test E preemergence; type: in vivo, Polygonum convolvulus; details: 21 days, scale 0 to 100
Excerpt: as §1, §2

wild poinsettia [1] = assay: Test E preemergence; type: in vivo, Euphorbia heterophylla; details: 21 days, scale 0 to 100
Excerpt: as §1, §2

pigweed = assay: Test E preemergence; type: in vivo, Amaranthus retroflexus; details: 21 days, scale 0 to 100
Excerpt: as §1, §2

wild poinsettia [2] = assay: Test F postemergence; type: in vivo, Euphorbia heterophylla; details: scale 0 to 100
In short: (§3)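 Visual injury was scored from 0 (none) to 100 (complete control) relative to untreated controls after 14–21 days in a greenhouse. Before that, formulated compound (solvent plus surfactant) was sprayed either on silt-loam soil right after sowing or on emerged plants at the 1–4-leaf stage, 2–18 cm tall.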

arrowleaf sida = assay: Test F postemergence; type: in vivo, Sida rhombifolia; details: scale 0 to 100
In short: as §3

Italian ryegrass = assay: Test F postemergence; type: in vivo, Lolium multiflorum; details: scale 0 to 100
In short: as §3

field bindweed = assay: Test F postemergence; type: in vivo, Convolvulus arvensis; details: scale 0 to 100
In short: as §3

Structure (SMILES): CCOc1cc(C(=O)NCC(F)(F)F)nn1Cc1ccnc(C(F)(F)F)c1 [Compound 104]
- Plant response rating, Surinam Grass (Surinam grass; 16 g ai/ha): 50
- Plant response rating, Surinam Grass (Surinam grass; 31 g ai/ha): 75
- Plant response rating, Surinam Grass (Surinam grass; 62 g ai/ha): 95
- Plant response rating, Surinam Grass (Surinam grass; 125 g ai/ha): 100
- Plant response rating, Surinam Grass (Surinam grass; 250 g ai/ha): 100
- Plant response rating, Ryegrass, Italian (ryegrass, Italian; 16 g ai/ha): 75
- Plant response rating, Ryegrass, Italian (ryegrass, Italian; 31 g ai/ha): 98
- Plant response rating, Ryegrass, Italian (ryegrass, Italian; 62 g ai/ha): 100
- Plant response rating, Ryegrass, Italian (ryegrass, Italian; 125 g ai/ha): 100
- Plant response rating, Ryegrass, Italian (ryegrass, Italian; 250 g ai/ha): 100
- Plant response rating, Quackgrass (quackgrass; 16 g ai/ha): 75
- Plant response rating, Quackgrass (quackgrass; 31 g ai/ha): 95
- Plant response rating, Quackgrass (quackgrass; 62 g ai/ha): 95
- Plant response rating, Quackgrass (quackgrass; 125 g ai/ha): 98
- Plant response rating, Quackgrass (quackgrass; 250 g ai/ha): 100
- Plant response rating, Buckwheat, Wild (buckwheat, wild; 16 g ai/ha): 100
- Plant response rating, Buckwheat, Wild (buckwheat, wild; 31 g ai/ha): 100
- Plant response rating, Buckwheat, Wild (buckwheat, wild; 62 g ai/ha): 100
- Plant response rating, Buckwheat, Wild (buckwheat, wild; 125 g ai/ha): 100
- Plant response rating, Buckwheat, Wild (buckwheat, wild; 250 g ai/ha): 100
- Plant response rating, Wild Poinsettia (wild poinsettia [1]; 16 g ai/ha): 95
- Plant response rating, Wild Poinsettia (wild poinsettia [1]; 31 g ai/ha): 100
- Plant response rating, Wild Poinsettia (wild poinsettia [1]; 62 g ai/ha): 100
- Plant response rating, Wild Poinsettia (wild poinsettia [1]; 125 g ai/ha): 100
- Plant response rating, Wild Poinsettia (wild poinsettia [1]; 250 g ai/ha): 100
- Plant response rating, Pigweed (pigweed; 16 g ai/ha): 100
- Plant response rating, Pigweed (pigweed; 31 g ai/ha): 100
- Plant response rating, Pigweed (pigweed; 62 g ai/ha): 100
- Plant response rating, Pigweed (pigweed; 125 g ai/ha): 100
- Plant response rating, Pigweed (pigweed; 250 g ai/ha): 100
- Plant response rating, Wild Poinsettia (wild poinsettia [2]; Postemergence, 31 g ai/ha): 45
- Plant response rating, Wild Poinsettia (wild poinsettia [2]; Postemergence, 125 g ai/ha): 95
- Plant response rating, Wild Poinsettia (wild poinsettia [2]; Postemergence, 250 g ai/ha): 90
- Plant response rating, Wild Poinsettia (wild poinsettia [2]; postemergence, 62 g ai/ha): 60
- Plant response rating, Wild Poinsettia (wild poinsettia [2]; postemergence, 500 g ai/ha): 100
- Plant response rating, Arrowleaf Sida (arrowleaf sida; Postemergence, 31 g ai/ha): 55
- Plant response rating, Arrowleaf Sida (arrowleaf sida; Postemergence, 125 g ai/ha): 70
- Plant response rating, Arrowleaf Sida (arrowleaf sida; Postemergence, 250 g ai/ha): 80
- Plant response rating, Arrowleaf Sida (arrowleaf sida; postemergence, 62 g ai/ha): 60
- Plant response rating, Arrowleaf Sida (arrowleaf sida; postemergence, 500 g ai/ha): 95
- Plant response rating, Italian Ryegrass (Italian ryegrass; Postemergence, 31 g ai/ha): 0
- Plant response rating, Italian Ryegrass (Italian ryegrass; Postemergence, 125 g ai/ha): 35
- Plant response rating, Italian Ryegrass (Italian ryegrass; Postemergence, 250 g ai/ha): 60
- Plant response rating, Italian Ryegrass (Italian ryegrass; postemergence, 62 g ai/ha): 15
- Plant response rating, Italian Ryegrass (Italian ryegrass; postemergence, 500 g ai/ha): 85
- Plant response rating, Field Bindweed (field bindweed; Postemergence, 31 g ai/ha): 70
- Plant response rating, Field Bindweed (field bindweed; Postemergence, 125 g ai/ha): 90
- Plant response rating, Field Bindweed (field bindweed; Postemergence, 250 g ai/ha): 90
- Plant response rating, Field Bindweed (field bindweed; postemergence, 62 g ai/ha): 70
- Plant response rating, Field Bindweed (field bindweed; postemergence, 500 g ai/ha): 95

Structure (SMILES): CCCc1cc(C(=O)NCC(F)(F)F)nn1Cc1ccnc(C(F)(F)F)c1 [Compound 105]
- Plant response rating, Surinam Grass (Surinam grass; 16 g ai/ha): 35
- Plant response rating, Surinam Grass (Surinam grass; 31 g ai/ha): 40
- Plant response rating, Surinam Grass (Surinam grass; 62 g ai/ha): 80
- Plant response rating, Surinam Grass (Surinam grass; 125 g ai/ha): 95
- Plant response rating, Surinam Grass (Surinam grass; 250 g ai/ha): 100
- Plant response rating, Ryegrass, Italian (ryegrass, Italian; 16 g ai/ha): 65
- Plant response rating, Ryegrass, Italian (ryegrass, Italian; 31 g ai/ha): 85
- Plant response rating, Ryegrass, Italian (ryegrass, Italian; 62 g ai/ha): 100
- Plant response rating, Ryegrass, Italian (ryegrass, Italian; 125 g ai/ha): 100
- Plant response rating, Ryegrass, Italian (ryegrass, Italian; 250 g ai/ha): 100
- Plant response rating, Quackgrass (quackgrass; 16 g ai/ha): 65
- Plant response rating, Quackgrass (quackgrass; 31 g ai/ha): 90
- Plant response rating, Quackgrass (quackgrass; 62 g ai/ha): 98
- Plant response rating, Quackgrass (quackgrass; 125 g ai/ha): 100
- Plant response rating, Quackgrass (quackgrass; 250 g ai/ha): 100
- Plant response rating, Buckwheat, Wild (buckwheat, wild; 16 g ai/ha): 100
- Plant response rating, Buckwheat, Wild (buckwheat, wild; 31 g ai/ha): 100
- Plant response rating, Buckwheat, Wild (buckwheat, wild; 62 g ai/ha): 100
- Plant response rating, Buckwheat, Wild (buckwheat, wild; 125 g ai/ha): 100
- Plant response rating, Buckwheat, Wild (buckwheat, wild; 250 g ai/ha): 100
- Plant response rating, Wild Poinsettia (wild poinsettia [1]; 16 g ai/ha): 50
- Plant response rating, Wild Poinsettia (wild poinsettia [1]; 31 g ai/ha): 80
- Plant response rating, Wild Poinsettia (wild poinsettia [1]; 62 g ai/ha): 100
- Plant response rating, Wild Poinsettia (wild poinsettia [1]; 125 g ai/ha): 100
- Plant response rating, Wild Poinsettia (wild poinsettia [1]; 250 g ai/ha): 100
- Plant response rating, Pigweed (pigweed; 16 g ai/ha): 100
- Plant response rating, Pigweed (pigweed; 31 g ai/ha): 100
- Plant response rating, Pigweed (pigweed; 62 g ai/ha): 100
- Plant response rating, Pigweed (pigweed; 125 g ai/ha): 100
- Plant response rating, Pigweed (pigweed; 250 g ai/ha): 100
- Plant response rating, Wild Poinsettia (wild poinsettia [2]; Postemergence, 31 g ai/ha): 40
- Plant response rating, Wild Poinsettia (wild poinsettia [2]; Postemergence, 125 g ai/ha): 70
- Plant response rating, Wild Poinsettia (wild poinsettia [2]; Postemergence, 250 g ai/ha): 100
- Plant response rating, Wild Poinsettia (wild poinsettia [2]; postemergence, 62 g ai/ha): 50
- Plant response rating, Wild Poinsettia (wild poinsettia [2]; postemergence, 500 g ai/ha): 100
- Plant response rating, Arrowleaf Sida (arrowleaf sida; Postemergence, 31 g ai/ha): 40
- Plant response rating, Arrowleaf Sida (arrowleaf sida; Postemergence, 125 g ai/ha): 60
- Plant response rating, Arrowleaf Sida (arrowleaf sida; Postemergence, 250 g ai/ha): 80
- Plant response rating, Arrowleaf Sida (arrowleaf sida; postemergence, 62 g ai/ha): 50
- Plant response rating, Arrowleaf Sida (arrowleaf sida; postemergence, 500 g ai/ha): 90
- Plant response rating, Italian Ryegrass (Italian ryegrass; Postemergence, 31 g ai/ha): 0
- Plant response rating, Italian Ryegrass (Italian ryegrass; Postemergence, 125 g ai/ha): 30
- Plant response rating, Italian Ryegrass (Italian ryegrass; Postemergence, 250 g ai/ha): 65
- Plant response rating, Italian Ryegrass (Italian ryegrass; postemergence, 62 g ai/ha): 15
- Plant response rating, Italian Ryegrass (Italian ryegrass; postemergence, 500 g ai/ha): 90
- Plant response rating, Field Bindweed (field bindweed; Postemergence, 31 g ai/ha): 70
- Plant response rating, Field Bindweed (field bindweed; Postemergence, 125 g ai/ha): 70
- Plant response rating, Field Bindweed (field bindweed; Postemergence, 250 g ai/ha): 80
- Plant response rating, Field Bindweed (field bindweed; postemergence, 62 g ai/ha): 75
- Plant response rating, Field Bindweed (field bindweed; postemergence, 500 g ai/ha): 90
